Results from BindingDB's records for doi:10.1021/jm800527x (Roche Palo Alto, 2008).

Columns and labels:
[1] = target: T1, Gag-Pol polyprotein [588-1027,K691N,Y769C]/[588-1147,K691N,Y769C] (Human immunodeficiency virus 1, UniProt P04585, K691N/Y769C); assay: HIV-1 Reverse Transcriptase Assay; conditions: pH 8; 30 °C
T1 construct: 588-1027; 588-1147
Source text: (§1) IC50s were obtained from the inhibition of the RNA-dependent DNA polymerase activity of the HIV-1 reverse transcriptase enzyme using a primer extension assay. EC50s were obtained from inhibition of virus-induced cell-death in MT-4 cells.

[2] = target: T2, Gag-Pol polyprotein [588-1027] (Human immunodeficiency virus type 1 group M subtype B (isolate HXB2), UniProt P04585); assay: HIV-1 Reverse Transcriptase Assay; conditions: pH 8; 30 °C
T2 construct: 588-1027
Source text: as §1

Structure (SMILES)	EC50 [1] [nM]	EC50 [2] [nM]
N#Cc1cc(Cl)cc(Oc2c(Br)ccc(Cc3n[nH]c4nccnc34)c2F)c1 [3-(6-bromo-2-fluoro-3-{1H-pyrazolo[3,4-b]pyrazin-3-ylmethyl}phenoxy)-5-chlorobenzonitrile]	> 100	> 25
Cc1cc(C#N)cc(Oc2ccc(Cc3n[nH]c4nnccc34)cc2Br)c1 [3-(2-bromo-4-{1H-pyrazolo[3,4-c]pyridazin-3-ylmethyl}phenoxy)-5-methylbenzonitrile]	> 100	–
